Reference: patent publication US20250099634A1, “METHOD OF TREATING CANCER” (Novartis AG, priority 2023, published 2025)
Where two headings read alike, the source gives them in different places.

Assays:
[1] = NETTER-2 deaths (Safety Set); format: in vivo, human
[2] = NETTER-2 subject disposition: discontinuation of randomized treatment phase (Full Analysis Set); format: in vivo, human
Source text: The discontinuation of either study treatments in both arms (Lutathera or octreotide long-acting) is not a reason for patient's withdrawal either from the clinical/tumor assessments until tumor progression, or for early study termination. However, in case of a patient's withdrawal from the clinical/tumor assessments or early study termination (based on either the patient's or the Investigator's decision), patients will undergo all exams scheduled for the End of Treatment (EOT) visit.
The Full Analysis Set (FAS) comprises all subjects to whom study treatment has been assigned by randomization. According to the intent to treat principle, subjects will be analyzed according to the treatment and strata they have been assigned to during the randomization procedure.

metastatic midgut NET = conditions: 30 mg/month, cited from earlier work
midgut carcinoid tumors = conditions: cited from earlier work
[3] = healthy subjects, 20 mg and 60 mg; cited from earlier work
[4] = NETTER-1 control arm, high dose (60 mg); cited from earlier work
[5] = All grades, randomized treatment period, Safety Set
[6] = Grade >=3, randomized treatment period, Safety Set
[7] = all grades, randomized treatment period
[8] = most frequent AEs, summary table

Compound: C[C@@H](O)[C@@H]1NC(=O)[C@H](CCCCN)NC(=O)[C@@H](Cc2c[nH]c3ccccc23)NC(=O)[C@H](Cc2ccccc2)NC(=O)[C@@H](NC(=O)[C@H](N)Cc2ccccc2)CSSC[C@@H](C(=O)N[C@H](CO)[C@@H](C)O)NC1=O [Octreotide LAR, octreotide]
- Number of Subjects who Died (Overall) ([1]; Safety Set): 14 (19.2) n (%)
- Number of Subjects who Died (Overall), primary reason Adverse Event ([1]; Safety Set): 1 (1.4) n (%)
- Number of Subjects who Died on-treatment in cross-over period (within 30 days of last dose), primary reason Disease under Study ([1]; Safety Set): 1 (1.4) n (%)
- Number of Subjects who Died on-treatment in randomized treatment period (within 30 days of last dose), primary reason Disease under Study ([1]; Safety Set): 4 (5.5) n (%)
- Number of subjects who died in the post-treatment follow up period ([1]; Safety Set): 9 (12.3) n (%)
- Number of subjects who died in the post-treatment follow up period, primary reason Adverse Event ([1]; Safety Set): 1 (1.4) n (%)
- Number of subjects who died in the post-treatment follow up period, primary reason Disease under Study ([1]; Safety Set): 8 (11.0) n (%)
- cause of death: adverse event ([1]; during the study): 1.4%
- subjects died during the study ([1]; during the study): 19.2%
- subjects died within 30 days after the last dose ([1]; randomized treatment period): 5.5%
- Reason for End of Randomized Treatment Phase: Adverse Event ([2]; Full Analysis Set): 1 (1.3) n (%)
- Reason for End of Randomized Treatment Phase: Death ([2]; Full Analysis Set): 4 (5.3) n (%)
- Reason for End of Randomized Treatment Phase: Progressive Disease ([2]; Full Analysis Set): 44 (58.7) n (%)
- Treatment discontinuation due to adverse event ([2]; randomized period): 1.3%
- discontinuation for progressive disease ([2]; randomized period): 58.7%
- AEs leading to discontinuation of Any Treatment (Lutathera, Octreotide) [5]: 2 (2.7) n (%)
- AEs leading to discontinuation of Octreotide [5]: 2 (2.7) n (%)
- AEs leading to dose interruption of Any Treatment (Lutathera, Octreotide) [5]: 11 (15.1) n (%)
- AEs leading to dose interruption of Octreotide [5]: 11 (15.1) n (%)
- AEs leading to dose reduction of Any Treatment (Lutathera, Octreotide) [5]: 1 (1.4) n (%)
- AEs leading to dose reduction of Octreotide [5]: 1 (1.4) n (%)
- Adverse event: Abdominal pain [5]: 20 (27.4) n (%)
- Adverse event: Alanine aminotransferase increased [5]: 10 (13.7) n (%)
- Adverse event: Alopecia [5]: 1 (1.4) n (%)
- Adverse event: Anaemia [5]: 5 (6.8) n (%)
- Adverse event: Aspartate aminotransferase increased [5]: 8 (11.0) n (%)
- Adverse event: Asthenia [5]: 9 (12.3) n (%)
- Adverse event: COVID-19 [5]: 10 (13.7) n (%)
- Adverse event: Constipation [5]: 6 (8.2) n (%)
- Adverse event: Decreased appetite [5]: 7 (9.6) n (%)
- Adverse event: Diarrhoea [5]: 25 (34.2) n (%)
- Adverse event: Gamma-glutamyltransferase increased [5]: 8 (11.0) n (%)
- Adverse event: Headache [5]: 5 (6.8) n (%)
- Adverse event: Hyperglycaemia [5]: 11 (15.1) n (%)
- Adverse event: Lymphocyte count decreased [5]: 0 n (%)
- Adverse event: Oedema peripheral [5]: 6 (8.2) n (%)
- Adverse event: Platelet count decreased [5]: 4 (5.5) n (%)
- Adverse event: Vomiting [5]: 6 (8.2) n (%)
- Adverse event: Weight increased [5]: 5 (6.8) n (%)
- Adverse event: White blood cell count decreased [5]: 3 (4.1) n (%)
- Adverse events [5]: 69 (94.5) n (%)
- Adverse events Related to Any Treatment [5]: 43 (58.9) n (%)
- Adverse events Related to Octreotide [5]: 43 (58.9) n (%)
- Adverse events: Number of subjects with at least one event [5]: 69 (94.5) n (%)
- AEs leading to discontinuation of Any Treatment (Lutathera, Octreotide) [6]: 2 (2.7) n (%)
- AEs leading to discontinuation of Octreotide [6]: 2 (2.7) n (%)
- AEs leading to dose interruption of Any Treatment (Lutathera, Octreotide) [6]: 5 (6.8) n (%)
- AEs leading to dose interruption of Octreotide [6]: 5 (6.8) n (%)
- AEs leading to dose reduction of Any Treatment (Lutathera, Octreotide) [6]: 1 (1.4) n (%)
- AEs leading to dose reduction of Octreotide [6]: 1 (1.4) n (%)
- Adverse event: Abdominal pain [6]: 3 (4.1) n (%)
- Adverse event: Alanine aminotransferase increased [6]: 2 (2.7) n (%)
- Adverse event: Alopecia [6]: 0 n (%)
- Adverse event: Anaemia [6]: 1 (1.4) n (%)
- Adverse event: Aspartate aminotransferase increased [6]: 2 (2.7) n (%)
- Adverse event: Asthenia [6]: 0 n (%)
- Adverse event: COVID-19 [6]: 0 n (%)
- Adverse event: Constipation [6]: 0 n (%)
- Adverse event: Decreased appetite [6]: 0 n (%)
- Adverse event: Diarrhoea [6]: 1 (1.4) n (%)
- Adverse event: Gamma-glutamyltransferase increased [6]: 2 (2.7) n (%)
- Adverse event: Headache [6]: 0 n (%)
- Adverse event: Hyperglycaemia [6]: 2 (2.7) n (%)
- Adverse event: Lymphocyte count decreased [6]: 0 n (%)
- Adverse event: Oedema peripheral [6]: 1 (1.4) n (%)
- Adverse event: Platelet count decreased [6]: 0 n (%)
- Adverse event: Vomiting [6]: 1 (1.4) n (%)
- Adverse event: Weight increased [6]: 0 n (%)
- Adverse event: White blood cell count decreased [6]: 0 n (%)
- Adverse events [6]: 20 (27.4) n (%)
- Adverse events Related to Any Treatment [6]: 3 (4.1) n (%)
- Adverse events Related to Octreotide [6]: 3 (4.1) n (%)
- Adverse events: Number of subjects with at least one event [6]: 20 (27.4) n (%)
- adverse event by preferred term: abdominal pain [7]: 27.4%
- adverse event by preferred term: diarrhoea [7]: 34.2%
- Incidence of AEs: Abdominal pain [8]: 20 (27.4) (%)
- Incidence of AEs: Diarrhoea [8]: 25 (34.2) (%)
- AEs leading to discontinuation of Lutathera and/or Octreotide (randomized treatment period): 2.7%
- AEs leading to discontinuation of Octreotide (randomized treatment period): 2.7%
- Any AEs (randomized treatment period): 94.5%
- Grade 3/4 AE: GGT increased (randomized treatment period): 2.7%
- Grade 3/4 AE: Lymphocyte count decreased (randomized treatment period): 0%
- Grade 3/4 AE: abdominal pain (randomized treatment period): 4.1%
- Grade 3/4 AE: small intestinal obstruction (randomized treatment period): 0%
- Grade ≥3 AEs (randomized treatment period): 27.4%
- Grade ≥3 AEs, Treatment-related (randomized treatment period): 4.1%
- time to tumor progression (metastatic midgut NET; 42 patients): 14.3 months
- patients achieving stable disease (metastatic midgut NET): 67%
- confirmed events (disease progressions RECIST 1.1 centrally assessed or deaths) (midgut carcinoid tumors; NETTER-1): 70
- median PFS (midgut carcinoid tumors; NETTER-1): 8.5 months
- median time free from relapse (midgut carcinoid tumors; NETTER-1 control arm, high dose (60 mg)): 8.4 months
- plasma exposure vs dose [3]: dose-proportional
- side effects [4]: without notable side effects
